Measured values as given in ChEMBL document CHEMBL1146317, “2-(2,2,2-Trifluoroethyl)-5,6-dichlorobenzimidazole derivatives as potent androgen receptor antagonists” (Bioorg Med Chem Lett, 2007).
Active and inactive are the calls of the source. The calls are words filed in the database; no cut-off is given here.

How the values were obtained:
[1] = organism: Rattus norvegicus; test: Inhibition of testoterone-induced prostate weight in castrated immature Sprague-Dawley rat; format: functional, Prostate gland
[2] = organism: Rattus norvegicus; test: Inhibition of testoterone-induced prostate weight in castrated immature Sprague-Dawley rat at 2 mg/day relative to control; format: functional, Prostate gland; settings: for Activity: Prostate gland
[3] = organism: Rattus norvegicus; test: Inhibition of testoterone-induced prostate weight in castrated immature Sprague-Dawley rat at 1 mg/day relative to control; format: functional, Prostate gland
[4] = organism: Rattus norvegicus; test: Toxicity in castrated immature Sprague-Dawley rat at 2 mg/day; settings: in vivo

Compound	Inhibition [2] [%]	further results
Fc1ccc(Cn2c(CC(F)(F)F)nc3cc(Cl)c(Cl)cc32)cc1	80	ID50 [1]: 0.19 mg/day
Fc1cccc(Cn2c(CC(F)(F)F)nc3cc(Cl)c(Cl)cc32)c1	55	–
FC(F)(F)Cc1nc2cc(Cl)c(Cl)cc2n1Cc1ccc(OC(F)(F)F)cc1	35	–
Fc1ccc(OCCn2c(CC(F)(F)F)nc3cc(Cl)c(Cl)cc32)cc1	40	–
O=C(Cn1c(CC(F)(F)F)nc2cc(Cl)c(Cl)cc21)c1ccc(F)cc1	67	–
COCn1c(C(C)(O)C(F)(F)F)nc2cc(Cl)c(Cl)cc21 (centres undefined)	88	–
FC(F)(F)Cc1nc2cc(Cl)c(Cl)cc2n1Cc1ccccc1Cl	90	ID50 [1]: 0.26 mg/day
FC(F)(F)Cc1nc2cc(Cl)c(Cl)cc2n1Cc1ccccc1C(F)(F)F	86	–
FC(F)(F)Cc1nc2cc(Cl)c(Cl)cc2n1Cc1ccccc1-c1ccncc1	42	–
FC(F)(F)Cc1nc2cc(Cl)c(Cl)cc2n1Cc1ccc(C(F)(F)F)cc1C(F)(F)F	13	–
CC(O)(c1nc2cc(Cl)c(Cl)cc2n1CC#N)C(F)(F)F (centres undefined)	54	–
CC(O)(c1nc2cc(Cl)c(Cl)cc2[nH]1)C(F)(F)F (centres undefined)	74	–
FC(c1nc2cc(Cl)c(Cl)cc2[nH]1)C(F)(F)F (centres undefined)	–	Inhibition [3]: 81%
FC(F)(F)Cc1nc2cc(Cl)c(Cl)cc2n1CCOc1ccc(Cl)cc1	48	–
O=C(Cn1c(CC(F)(F)F)nc2cc(Cl)c(Cl)cc21)c1ccc(Br)cc1	27	–
FC(F)(F)Cc1nc2cc(Cl)c(Cl)cc2n1Cc1ccccc1-c1cccnc1	80	–
O=[N+]([O-])c1cccc(Cn2c(CC(F)(F)F)nc3cc(Cl)c(Cl)cc32)c1	49	–
FC(F)(F)Cc1nc2cc(Cl)c(Cl)cc2n1Cc1cccc(OC(F)(F)F)c1	26	–
Cc1cccc(Cn2c(CC(F)(F)F)nc3cc(Cl)c(Cl)cc32)c1	31	–
FC(F)(F)Cc1nc2cc(Cl)c(Cl)cc2n1Cc1ccccc1	79	ID50 [1]: 0.37 mg/day
OC(c1nc2cc(Cl)c(Cl)cc2n1Cc1ccccn1)C(F)(F)F (centres undefined)	84	–
O=[N+]([O-])c1ccccc1Cn1c(CC(F)(F)F)nc2cc(Cl)c(Cl)cc21	81	ID50 [1]: 0.95 mg/day
FC(F)(F)C(F)(F)c1nc2cc(Cl)c(Cl)cc2[nH]1	–	Activity [4]: Toxic
FC(F)(F)Cc1nc2cc(Cl)c(Cl)cc2n1Cc1ccc(OCc2ccccc2)cc1	46	–

Compound	Inhibition [2] [%]	further results
N#Cc1ccccc1Cn1c(CC(F)(F)F)nc2cc(Cl)c(Cl)cc21	74	–
CCC(=O)Cn1c(CC(F)(F)F)nc2cc(Cl)c(Cl)cc21	64	–
CCOC(=O)c1ccc(Cn2c(CC(F)(F)F)nc3cc(Cl)c(Cl)cc32)cc1	56	–
OC(O)(c1nc2cc(Cl)c(Cl)cc2[nH]1)C(F)(F)F	94	–
FC(F)(F)Cc1nc2cc(Cl)c(Cl)cc2[nH]1	90	–
O=C(O)c1ccc(Cn2c(CC(F)(F)F)nc3cc(Cl)c(Cl)cc32)cc1	38	–
FC(F)(F)Cc1nc2cc(Cl)c(Cl)cc2n1Cc1ccc(SC(F)(F)F)cc1	13	–
Fc1c(F)c(F)c(Cn2c(CC(F)(F)F)nc3cc(Cl)c(Cl)cc32)c(F)c1F	19	–
Cn1c(C(C)(O)C(F)(F)F)nc2cc(Cl)c(Cl)cc21 (centres undefined)	–	Activity [2]: inactive
O=C(Cn1c(CC(F)(F)F)nc2cc(Cl)c(Cl)cc21)c1cccc([N+](=O)[O-])c1	14	–
O=[N+]([O-])c1ccc(Cn2c(CC(F)(F)F)nc3cc(Cl)c(Cl)cc32)cc1	61	–
FC(F)(F)Cc1nc2cc(Cl)c(Cl)cc2n1Cc1cccc(Cl)c1	35	–
FC(F)(F)Cc1nc2cc(Cl)c(Cl)cc2n1Cc1cccc(C(F)(F)F)c1	74	ID50 [1]: 0.4 mg/day
O=S(=O)(Cc1ccccc1Cn1c(CC(F)(F)F)nc2cc(Cl)c(Cl)cc21)c1ccccc1	74	–
O=C(Cn1c(CC(F)(F)F)nc2cc(Cl)c(Cl)cc21)c1ccccn1	76	ID50 [1]: 0.47 mg/day
FC(F)(F)Cc1nc2cc(Cl)c(Cl)cc2n1Cc1ccccc1-c1ccccc1	79	ID50 [1]: 0.55 mg/day
Fc1cccc(OCCn2c(CC(F)(F)F)nc3cc(Cl)c(Cl)cc32)c1	22	–
O=C(Cn1c(CC(F)(F)F)nc2cc(Cl)c(Cl)cc21)c1cccs1	43	–
COc1ccc(C(=O)Cn2c(CC(F)(F)F)nc3cc(Cl)c(Cl)cc32)c(OC)c1	–	Activity [2]: inactive
OCCn1c(CC(F)(F)F)nc2cc(Cl)c(Cl)cc21	54	–
O=C(Cn1c(CC(F)(F)F)nc2cc(Cl)c(Cl)cc21)c1ccc([N+](=O)[O-])cc1	71	–
FC(F)(F)Cc1nc2cc(Cl)c(Cl)cc2n1Cc1ccccn1	89	–
OC(c1nc2cc(Cl)c(Cl)cc2n1Cc1ccccc1)C(F)(F)F (centres undefined)	49	–
N#Cc1ccc(Cn2c(CC(F)(F)F)nc3cc(Cl)c(Cl)cc32)cc1	68	–

Compound	Inhibition [2] [%]	further results
FC(F)(F)Cc1nc2cc(Cl)c(Cl)cc2n1Cc1ccccc1-c1ccccn1	89	ID50 [1]: 0.4 mg/day
COc1ccc(Cn2c(CC(F)(F)F)nc3cc(Cl)c(Cl)cc32)cc1	51	–
FC(F)(F)Cc1nc2cc(Cl)c(Cl)cc2n1Cc1ccc(Cl)cc1	77	ID50 [1]: 0.28 mg/day
O=C(Cn1c(CC(F)(F)F)nc2cc(Cl)c(Cl)cc21)c1cccnc1	–	Activity [2]: inactive
FC(F)(F)Cc1nc2cc(Cl)c(Cl)cc2n1Cc1ccc(Br)cc1	75	ID50 [1]: 0.13 mg/day
Cc1ccccc1Cn1c(CC(F)(F)F)nc2cc(Cl)c(Cl)cc21	73	–
CCn1c(C(C)(O)C(F)(F)F)nc2cc(Cl)c(Cl)cc21 (centres undefined)	–	Activity [2]: inactive
COc1cccc(C(=O)Cn2c(CC(F)(F)F)nc3cc(Cl)c(Cl)cc32)c1	–	Activity [2]: inactive
FC(F)(F)Cc1nc2cc(Cl)c(Cl)cc2n1Cc1ccccc1Br	84	ID50 [1]: 0.38 mg/day
N#Cc1cccc(Cn2c(CC(F)(F)F)nc3cc(Cl)c(Cl)cc32)c1	70	–
OC(c1nc2cc(Cl)c(Cl)cc2[nH]1)C(F)(F)F (centres undefined)	96	–
CC(O)(CS(=O)(=O)c1ccc(F)cc1)C(=O)Nc1ccc(C#N)c(C(F)(F)F)c1 (centres undefined) [BICALUTAMIDE]	70	ID50 [1]: 0.23 mg/day
Fc1ccccc1Cn1c(CC(F)(F)F)nc2cc(Cl)c(Cl)cc21	77	ID50 [1]: 0.82 mg/day
FC(F)(F)Cc1nc2cc(Cl)c(Cl)cc2n1Cc1ccc(C(F)(F)F)cc1	75	–
COc1ccccc1C(=O)Cn1c(CC(F)(F)F)nc2cc(Cl)c(Cl)cc21	10	–
Oc1ccc(Cn2c(CC(F)(F)F)nc3cc(Cl)c(Cl)cc32)cc1	28	–
OC(O)(c1nc2cc(Cl)c(Cl)cc2n1Cc1ccccc1)C(F)(F)F	85	–
CS(=O)(=O)c1ccc(Cn2c(CC(F)(F)F)nc3cc(Cl)c(Cl)cc32)cc1	32	–
O=C(Cn1c(CC(F)(F)F)nc2cc(Cl)c(Cl)cc21)c1ccc(Cl)cc1	33	–
COc1cccc(Cn2c(CC(F)(F)F)nc3cc(Cl)c(Cl)cc32)c1	–	Activity [2]: inactive
COc1ccccc1Cn1c(CC(F)(F)F)nc2cc(Cl)c(Cl)cc21	51	–
O=C(Cn1c(CC(F)(F)F)nc2cc(Cl)c(Cl)cc21)c1ccccc1	38	–
N#Cc1ccc(OCCn2c(CC(F)(F)F)nc3cc(Cl)c(Cl)cc32)cc1	86	–
